Source: ChEMBL document CHEMBL1909046, “DrugMatrix in vitro pharmacology data”

Legend:
Leukotriene C4 synthase = molecular target: T1, Leukotriene C4 synthase (Cavia porcellus, UniProt A6XA80); format: tissue-based, Lung;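 also: enzyme inhibition assay of leukotriene C4 synthase, using LTA4 as the substrate; in other assays of this panel Not Active means under 50% inhibition at 10 µM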
T1 sequence (A6XA80 whole entry): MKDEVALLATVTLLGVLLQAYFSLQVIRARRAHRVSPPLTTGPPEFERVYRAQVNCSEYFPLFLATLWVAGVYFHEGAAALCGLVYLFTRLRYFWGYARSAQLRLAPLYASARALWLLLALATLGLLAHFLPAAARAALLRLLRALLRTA

[1] = molecular target: Tyrosine-protein kinase Lck (Homo sapiens, UniProt P06239); assay: DRUGMATRIX: Protein Tyrosine Kinase, LCK enzyme inhibition (substrate: Poly(Glu:Tyr)); format: cell-based, Insect cells; details: Not Active = under 50% inhibition at 10 µM
[2] = molecular target: Beta-3 adrenergic receptor (Homo sapiens, UniProt P13945); assay: DRUGMATRIX: Adrenergic beta3 radioligand binding (ligand: [125I] Cyanopindolol); format: cell membranes, Membrane; details: hek293; Not Active = under 50% inhibition at 10 µM
[3] = molecular target: T2, Vasoactive intestinal polypeptide receptor 1 (Homo sapiens, UniProt P32241); format: cell membranes, Membrane; details: ht-29; also: in other assays of this panel Not Active means under 50% inhibition at 10 µM
T2 sequence (P32241 whole entry): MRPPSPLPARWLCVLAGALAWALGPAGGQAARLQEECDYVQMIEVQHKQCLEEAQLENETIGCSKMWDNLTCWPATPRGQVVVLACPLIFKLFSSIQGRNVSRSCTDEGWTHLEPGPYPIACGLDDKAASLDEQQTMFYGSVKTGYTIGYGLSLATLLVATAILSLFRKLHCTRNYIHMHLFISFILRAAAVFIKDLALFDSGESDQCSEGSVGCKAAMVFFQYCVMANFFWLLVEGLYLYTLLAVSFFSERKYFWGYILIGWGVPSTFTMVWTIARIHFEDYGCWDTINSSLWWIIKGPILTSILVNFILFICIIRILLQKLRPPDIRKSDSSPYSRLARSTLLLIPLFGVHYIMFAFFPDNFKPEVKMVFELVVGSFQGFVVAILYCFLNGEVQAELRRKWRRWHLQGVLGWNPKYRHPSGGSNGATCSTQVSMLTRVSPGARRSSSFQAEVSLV

[4] = molecular target: cGMP-specific 3',5'-cyclic phosphodiesterase (Homo sapiens, UniProt O76074); assay: DRUGMATRIX: Phosphodiesterase PDE5 enzyme inhibition (substrate: [3H]cGMP + cGMP); format: tissue-based; details: platelet; Not Active = under 50% inhibition at 10 µM
[5] = molecular target: Matrix metalloproteinase-9 (Homo sapiens, UniProt P14780); assay: biochemical; format: cell-based;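 also: inhibition of isolated MMP-9 enzyme activity toward a synthetic peptide substrate, from the DrugMatrix protease screening panel; in other assays of this panel Not Active means under 50% inhibition at 10 µM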
[6] = molecular target: T3, 3-hydroxy-3-methylglutaryl-coenzyme A reductase (Homo sapiens, UniProt P04035); set-up: species or system Escherichia coli;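 also: enzyme inhibition assay of HMG-CoA reductase using radiolabeled [14C]HMG-CoA as substrate; in other assays of this panel Not Active means under 50% inhibition at 10 µM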
T3 sequence (P04035 whole entry): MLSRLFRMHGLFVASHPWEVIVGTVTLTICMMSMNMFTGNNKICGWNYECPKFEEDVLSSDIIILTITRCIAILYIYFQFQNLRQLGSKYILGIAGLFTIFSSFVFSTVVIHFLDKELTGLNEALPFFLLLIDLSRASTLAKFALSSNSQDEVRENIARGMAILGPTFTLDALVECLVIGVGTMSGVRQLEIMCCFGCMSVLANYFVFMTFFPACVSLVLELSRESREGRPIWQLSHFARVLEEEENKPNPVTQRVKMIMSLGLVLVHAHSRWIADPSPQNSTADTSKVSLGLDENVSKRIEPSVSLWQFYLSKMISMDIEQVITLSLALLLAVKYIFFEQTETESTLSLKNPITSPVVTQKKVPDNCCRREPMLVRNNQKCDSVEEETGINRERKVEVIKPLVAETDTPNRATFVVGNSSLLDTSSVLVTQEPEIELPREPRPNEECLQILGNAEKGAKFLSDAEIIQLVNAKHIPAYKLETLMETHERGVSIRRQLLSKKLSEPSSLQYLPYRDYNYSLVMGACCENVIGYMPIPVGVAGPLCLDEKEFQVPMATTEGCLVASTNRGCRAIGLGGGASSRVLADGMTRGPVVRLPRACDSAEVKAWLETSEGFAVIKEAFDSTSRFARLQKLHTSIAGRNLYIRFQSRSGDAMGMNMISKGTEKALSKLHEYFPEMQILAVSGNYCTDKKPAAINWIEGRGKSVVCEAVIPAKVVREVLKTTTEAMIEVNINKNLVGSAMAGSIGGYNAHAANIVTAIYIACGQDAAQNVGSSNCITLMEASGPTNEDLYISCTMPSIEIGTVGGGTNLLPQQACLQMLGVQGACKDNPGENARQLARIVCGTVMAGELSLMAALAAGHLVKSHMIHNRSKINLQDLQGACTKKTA

Substance-P receptor = Substance-P receptor (Homo sapiens, UniProt P25103); format: cell membranes, Membrane; details: cho; also: in other assays of this panel Not Active means under 50% inhibition at 10 µM
Sequence of Substance-P receptor (P25103 whole entry): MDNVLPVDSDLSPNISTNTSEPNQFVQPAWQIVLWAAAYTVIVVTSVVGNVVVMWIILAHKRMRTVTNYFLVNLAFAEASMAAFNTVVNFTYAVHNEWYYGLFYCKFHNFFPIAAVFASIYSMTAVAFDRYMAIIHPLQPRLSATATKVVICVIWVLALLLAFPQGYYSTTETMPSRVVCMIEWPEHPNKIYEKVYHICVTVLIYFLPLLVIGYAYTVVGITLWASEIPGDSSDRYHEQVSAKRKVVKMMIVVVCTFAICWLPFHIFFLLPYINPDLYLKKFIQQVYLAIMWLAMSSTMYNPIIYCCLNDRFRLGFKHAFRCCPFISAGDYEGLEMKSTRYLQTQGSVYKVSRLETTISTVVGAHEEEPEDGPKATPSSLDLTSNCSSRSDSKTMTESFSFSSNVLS

Sequence of Tyrosine-protein kinase Lck (P06239 whole entry): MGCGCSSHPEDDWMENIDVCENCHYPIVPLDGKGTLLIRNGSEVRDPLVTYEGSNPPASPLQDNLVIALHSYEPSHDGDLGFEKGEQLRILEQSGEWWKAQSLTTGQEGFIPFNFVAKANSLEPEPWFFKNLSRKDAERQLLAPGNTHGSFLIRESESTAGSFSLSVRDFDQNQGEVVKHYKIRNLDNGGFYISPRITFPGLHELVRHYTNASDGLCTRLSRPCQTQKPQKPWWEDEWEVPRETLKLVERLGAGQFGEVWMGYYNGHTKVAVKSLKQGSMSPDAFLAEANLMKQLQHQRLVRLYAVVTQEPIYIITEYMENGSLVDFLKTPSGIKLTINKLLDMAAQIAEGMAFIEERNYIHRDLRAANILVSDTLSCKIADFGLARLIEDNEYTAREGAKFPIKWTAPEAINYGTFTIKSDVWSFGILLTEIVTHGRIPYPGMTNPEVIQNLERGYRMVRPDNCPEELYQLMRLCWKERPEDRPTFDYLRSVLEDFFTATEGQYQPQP
Sequence of Matrix metalloproteinase-9 (P14780 whole entry): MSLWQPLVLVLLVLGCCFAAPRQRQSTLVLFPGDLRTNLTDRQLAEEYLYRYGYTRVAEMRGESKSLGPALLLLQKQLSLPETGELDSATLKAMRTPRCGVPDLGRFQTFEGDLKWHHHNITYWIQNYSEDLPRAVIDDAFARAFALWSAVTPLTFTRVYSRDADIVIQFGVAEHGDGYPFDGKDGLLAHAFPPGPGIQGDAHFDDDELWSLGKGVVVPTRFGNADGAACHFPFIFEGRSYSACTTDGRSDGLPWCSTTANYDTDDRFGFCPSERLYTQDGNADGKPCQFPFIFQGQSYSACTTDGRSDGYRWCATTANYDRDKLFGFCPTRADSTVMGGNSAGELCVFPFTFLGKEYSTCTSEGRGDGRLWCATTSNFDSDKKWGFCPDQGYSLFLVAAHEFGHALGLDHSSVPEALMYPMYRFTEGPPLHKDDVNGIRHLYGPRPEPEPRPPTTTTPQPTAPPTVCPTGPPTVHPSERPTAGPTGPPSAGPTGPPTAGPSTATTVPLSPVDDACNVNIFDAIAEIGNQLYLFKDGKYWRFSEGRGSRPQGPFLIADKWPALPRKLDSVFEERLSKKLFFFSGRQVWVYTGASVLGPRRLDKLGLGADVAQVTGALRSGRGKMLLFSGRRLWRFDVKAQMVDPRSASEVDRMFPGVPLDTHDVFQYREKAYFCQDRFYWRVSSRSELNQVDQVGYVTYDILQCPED
Sequence of Beta-3 adrenergic receptor (P13945 whole entry): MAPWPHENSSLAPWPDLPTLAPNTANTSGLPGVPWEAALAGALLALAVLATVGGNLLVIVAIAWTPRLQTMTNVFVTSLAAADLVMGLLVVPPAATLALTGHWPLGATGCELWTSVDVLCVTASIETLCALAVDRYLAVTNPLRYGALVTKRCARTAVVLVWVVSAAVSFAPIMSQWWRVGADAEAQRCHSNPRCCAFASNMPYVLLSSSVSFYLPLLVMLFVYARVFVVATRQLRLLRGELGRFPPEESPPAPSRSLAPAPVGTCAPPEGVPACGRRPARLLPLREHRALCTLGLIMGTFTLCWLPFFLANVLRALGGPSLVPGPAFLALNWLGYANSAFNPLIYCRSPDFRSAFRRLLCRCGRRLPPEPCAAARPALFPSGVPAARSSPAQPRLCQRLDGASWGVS

| Structure (SMILES) | IC50 (Leukotriene C4 synthase) | IC50 ([1]; insect cells) | IC50 [2] | IC50 [3] | IC50 [4] | IC50 [5] | IC50 [6] | IC50 (Substance-P receptor) | IC50 ([5]; read-out: IC50) [µM] | IC50 ([1]; read-out: IC50) [µM] |
| --- | --- | --- | --- | --- | --- | --- | --- | --- | --- | --- |
| C=C1CC[C@H](O)C/C1=C/C=C1\CCC[C@]2(C)[C@@H]([C@H](C)CCCC(C)C)CC[C@@H]12 [CHOLECALCIFEROL] | Not Active | Not Active | Not Active | Not Active | Not Active | Not Active | Not Active | Not Active | – | – |
| C[N+](C)(C)CCO.[Cl-] [CHOLINE CHLORIDE] | Not Active | Not Active | Not Active | Not Active | Not Active | Not Active | Not Active | Not Active | – | – |
| CCOC(=O)C(C)(C)Oc1ccc(Cl)cc1 [CLOFIBRATE] | Not Active | Not Active | Not Active | Not Active | Not Active | Not Active | Not Active | Not Active | – | – |
| CC(=O)OCC(=O)[C@@]1(O)CC[C@H]2[C@@H]3CCC4=CC(=O)CC[C@]4(C)[C@H]3C(=O)C[C@@]21C [CORTISONE ACETATE] | Not Active | Not Active | Not Active | Not Active | Not Active | Not Active | Not Active | Not Active | – | – |
| O=c1ccc2ccccc2o1 [COUMARIN] | Not Active | Not Active | Not Active | Not Active | Not Active | Not Active | Not Active | Not Active | – | – |
| C[C@@H]1C[C@@H]([C@H](O)CC2CC(=O)NC(=O)C2)C(=O)[C@@H](C)C1 [CYCLOHEXIMIDE] | Not Active | Not Active | Not Active | Not Active | Not Active | Not Active | Not Active | Not Active | – | – |
| C/C=C/C[C@@H](C)[C@@H](O)[C@H]1C(=O)N[C@@H](CC)C(=O)N(C)CC(=O)N(C)[C@@H](CC(C)C)C(=O)N[C@@H](C(C)C)C(=O)N(C)[C@@H](CC(C)C)C(=O)N[C@@H](C)C(=O)N[C@H](C)C(=O)N(C)[C@@H](CC(C)C)C(=O)N(C)[C@@H](CC(C)C)C(=O)N(C)[C@@H](C(C)C)C(=O)N1C [CYCLOSPORINE] | Not Active | Not Active | Not Active | Not Active | Not Active | Not Active | Not Active | Not Active | – | – |
| CN(C)/N=N/c1[nH]cnc1C(N)=O [DACARBAZINE] | Not Active | Not Active | Not Active | Not Active | Not Active | – | Not Active | Not Active | 0.556 | – |
| COc1ccc2c(c1)[C@]13CCCC[C@@H]1[C@H](C2)N(C)CC3 [DEXTROMETHORPHAN] | Not Active | Not Active | Not Active | Not Active | Not Active | Not Active | Not Active | Not Active | – | – |
| CC(=O)Nc1c(I)c(NC(C)=O)c(I)c(C(=O)O)c1I [DIATRIZOIC ACID] | Not Active | Not Active | Not Active | Not Active | Not Active | Not Active | Not Active | Not Active | – | – |
| COP(=O)(OC)OC=C(Cl)Cl [DICHLORVOS] | Not Active | Not Active | Not Active | Not Active | Not Active | Not Active | Not Active | Not Active | – | – |
| O=C(O)Cc1ccccc1Nc1c(Cl)cccc1Cl [DICLOFENAC] | Not Active | Not Active | Not Active | Not Active | Not Active | Not Active | Not Active | Not Active | – | – |
| C[C@H]1O[C@@H](O[C@H]2[C@@H](O)C[C@H](O[C@H]3[C@@H](O)C[C@H](O[C@H]4CC[C@@]5(C)[C@H](CC[C@@H]6[C@@H]5CC[C@]5(C)[C@@H](C7=CC(=O)OC7)CC[C@]65O)C4)O[C@@H]3C)O[C@@H]2C)C[C@H](O)[C@@H]1O [DIGITOXIN] | Not Active | Not Active | Not Active | Not Active | Not Active | Not Active | Not Active | Not Active | – | – |
| CCN1CC(CCN2CCOCC2)C(c2ccccc2)(c2ccccc2)C1=O (stereo not drawn) [DOXAPRAM] | Not Active | Not Active | Not Active | Not Active | Not Active | Not Active | Not Active | Not Active | – | – |
| Cn1c(=O)c2c(ncn2CC2OCCO2)n(C)c1=O [DOXOFYLLINE] | Not Active | Not Active | Not Active | Not Active | Not Active | Not Active | Not Active | Not Active | – | – |
| COc1cccc2c1C(=O)c1c(O)c3c(c(O)c1C2=O)C[C@@](O)(C(=O)CO)C[C@@H]3O[C@H]1C[C@H](N)[C@H](O)[C@H](C)O1 [DOXORUBICIN] | Not Active | – | Not Active | Not Active | Not Active | Not Active | Not Active | Not Active | – | 31.9 |
| COc1cccc2c1C(=O)c1c(O)c3c(c(O)c1C2=O)C[C@@](O)(C(=O)CO)C[C@@H]3O[C@H]1C[C@H](N)[C@@H](O)[C@H](C)O1 [EPIRUBICIN] | Not Active | Not Active | Not Active | Not Active | Not Active | Not Active | Not Active | Not Active | – | – |
| C[C@]12CC[C@@H]3c4ccc(OC(=O)c5ccccc5)cc4CC[C@H]3[C@@H]1CC[C@@H]2O [ESTRADIOL BENZOATE] | Not Active | Not Active | Not Active | Not Active | Not Active | Not Active | Not Active | Not Active | – | – |
| C[C@]12CC[C@@H]3c4ccc(O)cc4CC[C@H]3[C@@H]1CC[C@@H]2O [ESTRADIOL] | Not Active | Not Active | Not Active | Not Active | Not Active | Not Active | Not Active | Not Active | – | – |
| CC[C@@H](CO)NCCN[C@@H](CC)CO [ETHAMBUTOL] | Not Active | Not Active | Not Active | Not Active | Not Active | Not Active | Not Active | Not Active | – | – |
| CC1(C)O[C@@H]2C[C@H]3[C@@H]4C[C@H](F)C5=CC(=O)C=C[C@]5(C)[C@H]4[C@@H](O)C[C@]3(C)[C@]2(C(=O)CO)O1 [FLUNISOLIDE] | Not Active | Not Active | Not Active | Not Active | Not Active | Not Active | Not Active | Not Active | – | – |
